Test results published in patent US10987349B2, “Antitumor agent and bromodomain inhibitor” (FUJIFILM Corporation, priority 2016, dated 2021).

Tests used:
[1] = tested on: HT-29; experiment: Cell growth test (Cell Titer Blue) HT-29; assay type: cell-based; settings: Homo sapiens, 72 h, HT-29, Colon cancer, 3 days
Protocol: (§1) Moreover, the compound of Example 14 was subjected to a cell growth test using various types of cell lines.
(§2) All cell lines other than the below-noticed cells were each seeded in a well plate, in which an RPMI-1640 medium supplemented with penicillin/streptomycin and FBS with a final concentration of 10% was placed. The human prostate cancer cell line VCaP (ATCC) was seeded in a well plate, in which DMEM medium supplemented with penicillin/streptomycin and FBS with a final concentration of 10% was placed. […] Thereafter, using Enspire Multimode Plate Reader (PerkinElmer), the amount of fluorescence at an excitation wavelength of 531 nm and a fluorescence wavelength of 615 nm was measured. Since the amount of fluorescence is in proportion to the concentration of a florescent product resorufin that is converted from resazurin as a redox dye by living cells, the amount of fluorescence was used as an indicator of the number of living cells. The growth inhibition percentage of the test compound in each concentration was calculated according to the following equation. Growth inhibition percentage (%)=(amount of fluorescence in test compound−added well)/(amount of fluorescence in DMSO−added well)×100 […]

[2] = tested on: HCT-15; experiment: Cell growth test (Cell Titer Blue) HCT-15; assay type: cell-based; settings: Homo sapiens, 72 h, HCT-15, Colon cancer, 3 days
Protocol: as §1, §2

[3] = tested on: KM12; experiment: Cell growth test (Cell Titer Blue) KM12; assay type: cell-based; settings: Homo sapiens, 72 h, KM12, Colon cancer, 3 days
Protocol: as §1, §2

[4] = tested on: MKN45; experiment: Cell growth test (Cell Titer Blue) MKN45; assay type: cell-based; settings: Homo sapiens, MKN-45, 72 h, MKN45, Stomach cancer, 3 days
Protocol: as §1, §2

[5] = tested on: KG-1A; experiment: Cell growth test (Cell Titer Blue) KG-1A; assay type: cell-based; settings: Homo sapiens, 72 h, Acute myeloid leukemia, 3 days
Protocol: as §1, §2

[6] = tested on: CCRF-CEM; experiment: Cell growth test (Cell Titer Blue) CCRF-CEM; assay type: cell-based; settings: Homo sapiens, 72 h, Acute lymphoblastic leukemia, 3 days
Protocol: as §1, §2

[7] = tested on: MDA-MB-453; experiment: Cell growth test (Cell Titer Blue) MDA-MB-453; assay type: cell-based; settings: Homo sapiens, 72 h, MDA-MB-453, Breast cancer, 3 days
Protocol: as §1, §2

[8] = tested on: MCF-7; experiment: Cell growth test (Cell Titer Blue) MCF-7; assay type: cell-based; settings: Homo sapiens, MCF7, 72 h, MCF-7, Breast cancer, 3 days
Protocol: as §1, §2

[9] = tested on: PANC-1; experiment: Cell growth test (Cell Titer Blue) PANC-1; assay type: cell-based; settings: Homo sapiens, 72 h, PANC-1, Pancreatic cancer, 3 days
Protocol: as §1, §2

[10] = tested on: MV4-11 subcutaneously transplanted tumor; experiment: Medicinal effect test, MV4-11-subcutaneously-transplanted cancer-bearing mouse models, intravenous administration; assay type: in vivo; settings: intravenously, once per day, 25 days, BALB/c nu/nu mice
Protocol: T/C (%) was calculated from the average tumor volume of each group according to the following equation, and medicinal effects were then evaluated. T/C(%)=[1−(average tumor volume of drug administration group)/(average tumor volume of solvent administration group)]×100%
Moreover, using the above-described mouse models, medicinal effects obtained upon intravenous administration were evaluated.
The human acute myeloid leukemia cell line MV4-11 (ATCC) was suspended in a mixture of RPMI-1640 […] and Matrigel (Corning), and the obtained mixture was then subcutaneously transplanted into 6-week-old female BALB/c nu/nu mice (CLEA Japan, Inc.). After confirming that the average tumor volume exceeded 200 mm^3, a test compound was dissolved in a solvent (a normal saline containing 1 equivalent of hydrochloric acid), and the obtained solution was then intravenously administered to the mice at a daily dose of 10 to 30 mg/kg, once per day, for 25 days. As a negative control, a solvent administration group involving administration of a normal saline was established. The tumor diameter was measured on a daily basis, and the tumor volume was calculated. In the same manner as described above, the tumor volume and T/C (%) were calculated, and medicinal effects were then evaluated.

[11] = tested on: HEXIM1 gene; experiment: Expression of HEXIM1 gene in MV4-11 cells, RT-PCR; assay type: cell-based, human; settings: MV4-11 cells, 10, 30 or 100 nmol/L, 6 hours
Protocol: A fluctuation in the expression of c-Myc, IL-7R and HEXIM1 genes in MV4-11 (ATCC) cells treated with the test compound was analyzed according to a reverse transcription polymerase chain reaction (RT-PCR) method.
MV4-11 cells were cultured for 6 hours in an RPMI-1640 medium supplemented with penicillin/streptomycin and FBS with a final concentration of 10%, to which the compound of Example 14 was added to a concentration of 10 nmol/L, 30 nmol/L or 100 nmol/L. On the other hand, a non-treatment group (Non-treatment) was established by culturing MV4-11 cells for 6 hours in the above-described medium, to which the compound of Example 14 was not added. Using Rneasy (registered trademark) (Qiagen), RNA was extracted from the above-described MV4-11 cells in accordance with the instruction manual included with the aforementioned device. […] Thereafter, a PCR reaction was carried out for 40 cycles (a cycle consisting of 95° C.-5 seconds and 60° C.-30 seconds.) Subsequently, the obtained reaction product was measured.
As a housekeeping gene, the expression level of GAPDH (Glyceraldehyde 3-phosphate dehydrogenase) was also evaluated. The ratio of the expression level of the mRNA of each of c-Myc, IL-7R and HEXIM1 to the expression level of GAPDH was calculated, and the expression level of each gene (relative expression level) was then quantified. […]

CCn1c(=O)cc(C2CCN(C)CC2)c2cc(C(=O)N(C)c3ccc(C)cc3)ccc21 [Example 14, 1-Ethyl-N-methyl-N-(4-methylphenyl)-4-(1-methylpiperidin-4-yl)-2-oxo-1,2-dihydroquinoline-6-carboxamide]
GI50 [1]: 0.12 µM | GI50 [2]: 0.505 µM | GI50 [3]: 1.49 µM | GI50 [4]: 2.18 µM | GI50 [5]: 0.119 µM | GI50 [6]: 0.065 µM | GI50 [7]: 0.115 µM | GI50 [8]: 0.689 µM | GI50 [9]: 2.98 µM | T/C (%) ([10]; 10 mg/kg): 66% | T/C (%) ([10]; 30 mg/kg): 78% | mRNA expression of HEXIM1 (GAPDH correction) [11]: increased
